Data taken from patent US10065972B2, “Bicyclic or tricyclic heterocyclic compound” (MITSUBISHI TANABE PHARMA CORPORATION, priority 2014, dated 2018).

Biological target: human recombinant KAT-II (Homo sapiens (Human), UniProt Q8N5Z0)
Experiment: KAT-II inhibitory test
Format: biochemical
Settings: 3.0 μmol/L kynurenine, 37° C., 1 hr, pH 8.0; kynurenic acid quantified by HPLC
Procedure, shortened: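 E. coli-expressed His/MBP-tagged human KAT-II (2.0 ng/μL) incubated with 3.0 μmol/L kynurenine and 10 μmol/L pyridoxal phosphate in Tris-acetate pH 8.0, 1 hr at 37 °C. Reaction stopped with TCA. Kynurenic acid quantified by reversed-phase HPLC with fluorescence detection (ex 354/em 460 nm), duplicate at each concentration.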

Sequence of human recombinant KAT-II (Q8N5Z0 30-425): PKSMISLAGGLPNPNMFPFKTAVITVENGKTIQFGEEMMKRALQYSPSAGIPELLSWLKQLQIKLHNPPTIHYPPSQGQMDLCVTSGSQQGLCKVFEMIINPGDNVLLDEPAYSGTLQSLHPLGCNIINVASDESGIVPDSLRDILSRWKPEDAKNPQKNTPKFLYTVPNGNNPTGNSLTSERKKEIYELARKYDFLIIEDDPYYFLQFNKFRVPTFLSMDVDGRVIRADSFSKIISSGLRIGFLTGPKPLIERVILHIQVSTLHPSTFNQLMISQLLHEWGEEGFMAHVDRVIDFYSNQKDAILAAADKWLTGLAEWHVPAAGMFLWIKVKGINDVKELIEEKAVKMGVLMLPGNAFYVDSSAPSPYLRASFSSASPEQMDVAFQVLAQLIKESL

| Structure (SMILES) | IC50 |
| --- | --- |
| O=C(NCc1ccccc1)[C@H]1CCCN1c1nc2c(=O)n(CC3CCOCC3)c(C(F)F)nc2s1 [Example 254, (R)-N-benzyl-1-{5-difluoromethyl-7-oxo-6-[(tetrahydro-2H-pyran-4-yl)methyl]-6,7-dihydro-[1,3]thiazolo[5,4-d]pyrimidin-2-yl}pyrrolidine-2-carboxamide] | 11 nM |
| Cc1nn(C2CCCCC2)c(=O)c2nc(N3CCC[C@@H]3C(=O)NCc3ccccc3)sc12 [Example 616, (R)-N-benzyl-1-(5-cyclohexyl-7-methyl-4-oxo-4,5-dihydro[1,3]thiazolo[4,5-d]pyridazin-2-yl)pyrrolidine-2-carboxamide] | 73 nM |
| CCn1c(C(F)F)nc2sc(N3CCC[C@@H]3C(=O)NCc3nccs3)nc2c1=O [Example 314, (R)-1-(5-difluoromethyl-6-ethyl-7-oxo-6,7-dihydro-[1,3]thiazolo[5,4-d]pyrimidin-2-yl)-N-[(1,3-thiazol-2-yl)methyl]pyrrolidine-2-carboxamide] | 610 nM |
| O=C(NCc1ccccc1)[C@H]1CCCN1c1ccc2nc(C3(Cl)CC3)[nH]c(=O)c2n1 [Example 711, (R)-N-benzyl-1-[2-(1-chlorocyclopropyl)-4-oxo-3,4-dihydropyrido[3,2-d]pyrimidin-6-yl]pyrrolidine-2-carboxamide] | 190 nM |
| Cn1c(-c2ccccc2)nc2sc(N3CC[C@@H](N)[C@@H]3C(=O)NCc3ccccc3)nc2c1=O [Example 611, (2R,3R)-3-amino-N-benzyl-1-(6-methyl-7-oxo-5-phenyl-6,7-dihydro[1,3]thiazolo[5,4-d]pyrimidin-2-yl)pyrrolidine-2-carboxamide] | 570 nM |
| O=C(NCc1ccccc1)[C@H]1CCCN1c1nc2c(=O)[nH]c(N3CCCCC3)nc2s1 [Example 728, (R)-N-benzyl-1-[7-oxo-5-(piperidin-1-yl)-6,7-dihydro[1,3]thiazolo[5,4-d]pyrimidin-2-yl]pyrrolidine-2-carboxamide] | 24 nM |
| CCn1c(C(F)F)nc2sc(N3CCC[C@@H]3C(=O)NCc3ccc4c(c3)OCO4)nc2c1=O [Example 304, (R)-N-[(benzo[1,3]dioxo-5-yl)methyl]-1-(5-difluoromethyl-6-ethyl-7-oxo-6,7-dihydro-[1,3]thiazolo[5,4-d]pyrimidin-2-yl)pyrrolidine-2-carboxamide] | 21 nM |
| CCc1nc2sc(N3CCC[C@@H]3C(=O)NCc3cc(C)ccn3)nn2c(=O)c1F [Example 664, (R)-1-(7-ethyl-6-fluoro-5-oxo-5H-[1,3,4]thiadiazolo[3,2-a]pyrimidin-2-yl)-N-[(4-methylpyridin-2-yl)methyl]pyrrolidine-2-carboxamide] | 560 nM |
| CC(C)c1cc(=O)n2nc(N3CCC[C@@H]3C(=O)NCc3ccccc3)ccc2n1 [Example 720, (R)-N-benzyl-1-[4-oxo-2-(propan-2-yl)-4H-pyrimido[1,2-b]pyridazin-7-yl]pyrrolidine-2-carboxamide] | 550 nM |
| CN1CCn2c(nc3sc(N4CCC[C@@H]4C(=O)NCc4ccccc4)nc3c2=O)C1 [Example 590, (R)-N-benzyl-1-(6-methyl-10-oxo-5,7,8,10-tetrahydro-6H-pyrazino[1,2-a][1,3]thiazolo[5,4-d]pyrimidin-2-yl)pyrrolidine-2-carboxamide] | 280 nM |
| O=C(Cc1ccccc1)N1CCC[C@@H]1c1nc2c(=O)[nH]c(C3(C(F)(F)F)CC3)nc2s1 [Example 97, 2-[(R)-1-(phenylacetyl)pyrrolidin-2-yl]-5-[1-(trifluoromethyl)cyclopropyl]-6H-[1,3]thiazolo[5,4-d]pyrimidin-7-one] | 13 nM |
| CN(C)c1nc2sc([C@H]3CCCN3C(=O)Oc3ccccc3)nc2c(=O)[nH]1 [Example 106, (R)-2-[5-(N,N-dimethylamino)-7-oxo-6,7-dihydro[1,3]thiazolo[5,4-d]pyrimidin-2-yl]pyrrolidine-1-carboxylic acid phenyl ester] | 69 nM |
| O=C(NCc1ccccc1)[C@H]1CCCN1c1nc2c(=O)n(N3CCCC3)c(C(F)(F)F)nc2s1 [Example 252, (R)-N-benzyl-1-[7-oxo-6-(pyrrolidin-1-yl)-5-trifluoromethyl-6,7-dihydro-[1,3]thiazolo[5,4-d]pyrimidin-2-yl]pyrrolidine-2-carboxamide] | 19 nM |
| CNCCn1c(C(F)(F)F)nc2sc(N3CCC[C@@H]3C(=O)NCc3ccccc3)nc2c1=O [Example 363, (R)-N-benzyl-1-[6-(2-methylaminoethyl)-7-oxo-5-trifluoromethyl-6,7-dihydro[1,3]thiazolo[5,4-d]pyrimidin-2-yl]pyrrolidine-2-carboxamide] | 120 nM |
| O=C(NCc1ccccc1)[C@H]1CCCN1c1ccc2nc(-c3ccccc3)cc(=O)n2n1 [Example 714, (R)-N-benzyl-1-(4-oxo-2-phenyl-4H-pyrimido[1,2-b]pyridazin-7-yl)pyrrolidine-2-carboxamide] | 590 nM |
| COC1CN(c2nc3sc(N4CCC[C@@H]4C(=O)COc4ccccc4)nc3c(=O)n2C)C1 [Example 578, 5-(3-methoxyazetidin-1-yl)-6-methyl-2-[(R)-2-(2-phenoxyacetyl)pyrrolidin-1-yl][1,3]thiazolo[5,4-d]pyrimidin-7(6H)-one] | 28 nM |
| Cn1c(CN2CCOCC2)nc2sc([C@H]3CCCN3C(=O)OCc3ccccc3)nc2c1=O [Example 8, (R)-2-{6-methyl-5-[(morpholin-4-yl)methyl]-7-oxo-6,7-dihydro[1,3]thiazolo[5,4-d]pyrimidin-2-yl}pyrrolidine-1-carboxylic acid benzyl ester] | 610 nM |
| Cc1cccc(CC(=O)N2CCC[C@@H]2c2nc3c(=O)[nH]c(C4(C(F)(F)F)CC4)nc3s2)c1 [Example 98, 2-{(R)-1-[2-(3-methylphenyl)acetyl]pyrrolidin-2-yl}-5-[1-(trifluoromethyl)cyclopropyl]-6H-[1,3]thiazolo[5,4-d]pyrimidin-7-one] | 37 nM |
| Cc1noc(-c2nc3sc(N4CCC[C@@H]4C(=O)NCc4ccccc4)nc3c(=O)n2C)n1 [Example 211, (R)-N-benzyl-1-[6-methyl-5-(3-methyl-1,2,4-oxadiazol-5-yl)-7-oxo-6,7-dihydro[1,3]thiazolo[5,4-d]pyrimidin-2-yl]pyrrolidine-2-carboxamide] | 7.3 nM |
| O=C(NCc1ccccc1)[C@H]1CCCN1c1nc2c(=O)[nH]c(OCC(F)(F)F)nc2s1 [Example 555, (R)-N-benzyl-1-[7-oxo-5-(2,2,2-trifluoroethoxy)-6,7-dihydro[1,3]thiazolo[5,4-d]pyrimidin-2-yl]pyrrolidine-2-carboxamide] | 1100 nM |
| COCc1nc2sc(N3CCC[C@@H]3C(=O)NCc3ccccc3)nc2c(=O)n1C1CCOCC1 [Example 565, (R)-N-benzyl-1-[5-methoxymethyl-7-oxo-6-(tetrahydro-2H-pyran-4-yl)-6,7-dihydro[1,3]thiazolo[5,4-d]pyrimidin-2-yl]pyrrolidine-2-carboxamide] | 10 nM |
| CN(C)Cc1nc2sc(N3CCC[C@@H]3C(=O)NCc3ccccc3)nc2c(=O)n1C [Example 323, (R)-N-benzyl-1-{5-[(N′,N′-dimethylamino)methyl]-6-methyl-7-oxo-6,7-dihydro[1,3]thiazolo[5,4-d]pyrimidin-2-yl}pyrrolidine-2-carboxamide] | 78 nM |
| CCCc1cc(=O)n2nc(N3CCCC[C@@H]3C(=O)NCc3ccccc3)sc2n1 [Example 635, (R)-N-benzyl-1-(5-oxo-7-propyl-5H-[1,3,4]thiadiazolo[3,2-a]pyrimidin-2-yl) piperidine-2-carboxamide] | 970 nM |
